These results are taken from patent US7524816B2, “Peptides and supported peptides for treating skin diseases” (Genencor International, Inc., priority 2003, dated 2009).

Positions of bridges follow the written chain, without caps; N, C: chain ends. Residues, ends and D or L forms follow the SMILES beside them.

For data set [1], the target named is T1, Human VEGF165 (Homo sapiens, UniProt P15692).
T1 construct: purchased Biosource
T1 sequence (P15692 27-191 isoform P15692-4): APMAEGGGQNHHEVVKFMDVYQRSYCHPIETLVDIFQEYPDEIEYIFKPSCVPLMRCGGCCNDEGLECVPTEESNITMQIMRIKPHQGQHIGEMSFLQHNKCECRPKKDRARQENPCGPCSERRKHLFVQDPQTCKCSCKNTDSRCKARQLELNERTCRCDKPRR
Put plainly: BIAcore surface plasmon resonance binding analysis of VEGF binding peptides. As to the method: FIG. 3 provides results of a BIACORE binding analysis of VEGF binding peptides. Binding curves were obtained as described in the Examples. […]
In this Example, experiments conducted to assess the affinities of the peptides for VEGF are described. Affinities of the peptides for VEGF were measured using a BIAcore™-3000 surface plasmon resonance system (Biacore). A CM5 sensor chip was conditioned with 50 mM NaOH, 0.1% HCl, 0.1% SDS, and 0.08% H3PO4, and activated for covalent coupling of […] using N-ethyl-N′-(3-dimethylaminopropyl)-carbodiimide hydrochloride (EDC) and N-hydroxysuccinimide (NHS) according to the supplier's instructions (Biacore). Human VEGF165 (Biosource) was diluted to 5 μg/ml in 20 mM sodium acetate, pH 4.8 and injected at a flow rate of 2 μl/min to achieve approximately 1000 to 6000 response units (RU) of coupled protein. TNF[…] (human TNF[…], Biosource, Int., Camarillo, Calif.) was similarly coupled to the CM5 sensor chip to approximately 850 to 3500 RU in the reference lane. A solution of 1 M ethanolamine was injected as a blocking agent. In some experiments, an additional solution of EDC and NHS were injected to improve baseline stability and a solution of 1 M ethanolamine injected as a blocking agent. The reference lane is activated with EDC and NHS and blocked with ethanolamine.
Peptides were synthesized using standard FMOC chemistry, purified by reverse phase HPLC to >95% purity (SynPep), and stored at 10 mg/mL in DMSO. For kinetic measurements, twofold serial diluted peptides in HBS-EP buffer, 0.01 M HEPES pH 7.4, 0.15 M NaCl, 3 mM EDTA, 0.005% Surfactant P20 (Biacore), were injected at 25° C. at a flow rate of 20 μL/min. Two-fold serial diluted DMSO samples and buffer samples were also injected for background subtraction. Kinetic parameters were calculated using BIAevaluation 3.1 software.

Data set [2] relates to human umbilical vein endothelial cells (HUVEC). Kind of data set: In vitro HUVEC proliferation assay (MTS) of hVEGF inhibitory peptides. The following applies: 10 ng/ml VEGF, 48 hrs. Type of data set: cell-based. As to the method:
In this Example, experiments conducted to determine the anti-proliferative activity of anti-VEG peptides are described. The antiproliferative activity of VEGF inhibitory peptides was determined using human umbilical vein endothelial cells (HUVEC) as follows. An early passage (less than six) of HUVEC was seeded in 96-well plates at 5000 cells per well and starved for 18 hrs in 200 μl EBM medium (Cambrex) without growth factors and supplemented with 0.5% FBS, at 37° C. with 5% CO2. The medium was replaced with 180 μl of growth medium containing EBM medium with 5% fetal bovine serum and 1% DMSO. Then, 20 μl of VEGF preincubated for one hour with varying peptide concentrations (the final DMSO concentration of all the wells was 1%) were added to the wells for a final VEGF concentration of 10 ng/ml. Human VEGF antibody (R & D Systems) was used as a positive control. Cells with 0.31 to 20 ng/ml concentrations of VEGF alone in the growth medium were used to construct a standard growth curve. The cells were further incubated for 48 hrs, and the cell proliferation was measured using an MTS assay (CellTiter 96 Aqueous One Solution Cell Proliferation Assay Kit; Promega). Then, 40 μl of the MTS tetrazolium solution was added to each well and after 3 and 4 hours incubation, the plates were read at 490 nm. The absorption of media alone was subtracted from all data points.

The nature of data set [3]: Repeat insult patch test (RIPT) on human skin. Type of data set: in vivo. The following applies: 0.5% (w/v) in deionized water/butylene glycol; approximately 0.2 mL; 200 human volunteers. As to the method:
In this Example, experiments conducted to determine the patch test result for anti-VEGF peptides are described. Samples of the aVEGF peptide CK37281 dosed at 0.5% (w/v) were formulated in a base formulation containing deionized water/butylene glycol. Approximately 0.2 mL of the formulation was applied to 200 human volunteers in a repeated insult patch test according to procedures designed by Clinical Research Laboratories, Inc. (Piscataway, N.J.).

In data set [4] the target is T1, Human VEGF165. Kind of data set: BIAcore binding analysis of BBI-VEGF constructs. The following applies: trypsin and chymotrypsin coupled in remaining lanes. As to the method:
In this Example, experiments conducted to determine the binding affinity of constructs produced as indicated in Example 9 are described. Affinities of BBI-VEGF constructs for VEGF were measured using BLAcore-3000 surface plasmon resonance (Biacore). A CM5 sensor chip was conditioned with 50 mM NaOH and activated for covalent coupling of VEGF using N-ethyl-N′-3-dimethylaminopropyl)-carbodiimide hydrochloride (EDC) and N-hydroxysuccinimide (NHS) according to the supplier's instructions (Biacore). VEGF (human VEGF165, Biosource) was diluated to 5 μg/mL in 20 mM sodium acetate, pH 4.8, and injected at a flow rate of 2 μL/min to achieve approximately 1000 to 6000 response units (RU) of coupled protein. Trypsin and chymotrypsin were similarly coupled to the CM5 sensor chip to approximately 850 to 3500 RU in remaining lanes. A solution of 1 M ethanolamine was injected as a blocking agent.
(SPR reads the build-up and loss of mass on a sensor chip optically.)

[5] abbreviates: two state reaction model with conformation change.

For the molecule `CC(C)C[C@@H]1NC(=O)[C@H](CC(N)=O)NC(=O)[C@H](Cc2ccc(O)cc2)NC(=O)[C@@H](NC(=O)[C@H](C)N)CSSC[C@@H](C(=O)NCC(=O)NCC(=O)NCC(=O)O)NC(=O)[C@H]([C@@H](C)O)NC(=O)[C@H](Cc2c[nH]c3ccccc23)NC(=O)CNC(=O)[C@H](Cc2ccc(O)cc2)NC1=O` [CK37281] (H-ACYNLYGWTCGGG-OH; disulfide 2-10 (inferred); N-terminus and C-terminus assumed), on Human VEGF165 [1] (setting [5]), the ka2 stood at 0.0015 s⁻¹ and the kd1 turned out to be 0.0122 s⁻¹. Further, the IC50 antiproliferative activity entry in data set [2] is listed as “in the micromolar range”. Also, in data set [3], the “dermal irritation or sensitization” value was “no dermal irritation or sensitization”.
At Human VEGF165 [1] (setting [5]), `CC(C)C[C@@H]1NC(=O)[C@H](CC(N)=O)NC(=O)[C@@H](NC(=O)[C@H](C)N)CSSC[C@@H](C(=O)NCC(=O)NCC(=O)NCC(=O)O)NC(=O)[C@H](Cc2c[nH]c3ccccc23)NC(=O)[C@H](Cc2ccccc2)NC(=O)[C@H](Cc2c[nH]cn2)NC(=O)[C@@H]2CCCN2C(=O)[C@H](Cc2c[nH]c3ccccc23)NC1=O` [CK37283, NLWPHFW] had a ka2 of 0.00634 s⁻¹ and a kd1 of 0.318 s⁻¹. In addition, the IC50 antiproliferative activity entry in data set [2] was “in the micromolar range”.
On Human VEGF165 [1] (1:1 Langmuir binding fit, 1000 RU VEGF, 850 RU TNF), `CC[C@H](C)[C@@H]1NC(=O)[C@H](CC(=O)O)NC(=O)[C@@H](NC(=O)[C@H](CC(N)=O)NC(=O)[C@@H]2CCCN2C(=O)[C@H](CCC(=O)O)NC(=O)[C@@H](N)C(C)C)CSSC[C@@H](C(=O)N[C@@H](Cc2ccccc2)C(=O)N[C@@H](CCC(=O)O)C(=O)N[C@@H](CCCNC(=N)N)C(=O)N[C@@H](CC(C)C)C(N)=O)NC(=O)[C@H](CCC(=O)O)NC(=O)[C@H](Cc2c[nH]c3ccccc23)NC(=O)[C@H](CCC(=O)O)NC(=O)[C@H](Cc2c[nH]c3ccccc23)NC(=O)[C@H](CCSC)NC(=O)[C@H](C(C)C)NC(=O)[C@H](Cc2c[nH]cn2)NC1=O` [v114, reference compound] (H-VEPNCDIHVMWEWECFERL-NH2; disulfide 5-15; N-terminus and C-terminus assumed) gave a kd1 of 0.167 s⁻¹.

B1: BBI-VEGF1: Bowman-Birk inhibitor fusion with one binding loop replaced by anti-VEGF peptide (protein)
chain: DDESSKPCCDQCACYNLYGWTCRCSDMRLNSCHSACKSCICALSYPAQCFCVDITDFCYEPCKPSEDDKEN
modifications: synthetic BBI-VEGF1 fusion protein
As for B1, the “binding to VEGF” value with Human VEGF165 [4] is listed as “binds specifically to VEGF”; with Human VEGF165 [4] (listed as BBI-VEGF), “Selective binding affinity to VEGF”.
